According to patent US20230278972A1, “SUBSTITUTED HALOALKYL SULFONANILIDE HERBICIDES” (FMC Corporation, priority 2020, published 2023):

Legend:
Assay type in all cases: in vivo
[1] = test system: blackgrass (Alopecurus myosuroides); assay: Test A1 preemergence, blackgrass
Excerpt: (§1) Seeds of plant species selected from, blackgrass (Alopecurus myosuroides), corn (Zea mays), Foxtail, Giant (giant foxtail, Setaria faberi), goosegrass (Eleusine indica), kochia (Bassia scoparia), Oat, Wild (wild oat, Avena fatua), Pigweed, Palmer (palmer amaranth, palmer pigweed, Amaranthus palmeri), ragweed (common ragweed, Ambrosia artemisiifolia), Ryegrass, Italian (Italian ryegrass, Lolium multiflorum), soybean (Glycine max), and wheat (Triticum aestivum) were planted into a blend of loam soil and sand and treated preemergence with a directed soil spray using test chemicals formulated in a non-phytotoxic solvent mixture which included a surfactant. At the same time, plants selected from these crop and weed species and also galium (catchweed bedstraw, Galium aparine) and horseweed (Erigeron canadensis) were planted in pots containing the same blend of loam soil and sand and treated with postemergence applications of test chemicals formulated in the same manner. Plants ranged in height from 2 to 10 cm and were in the one- to two-leaf stage for the postemergence treatment. […] A dash (-) response means no test result.

corn (Zea mays) [2] = assay: Test A1 preemergence, corn
Excerpt: as §1

[3] = test system: Foxtail, Giant (giant foxtail, Setaria faberi); assay: Test A1 preemergence, Foxtail, Giant
Excerpt: as §1

[4] = test system: goosegrass (Eleusine indica); assay: Test A1 preemergence, goosegrass
Excerpt: as §1

kochia (Bassia scoparia) [5] = assay: Test A1 preemergence, kochia
Excerpt: as §1

[6] = test system: Oat, Wild (wild oat, Avena fatua); assay: Test A1 preemergence, Oat, Wild
Excerpt: as §1

[7] = test system: Pigweed, Palmer (palmer amaranth, palmer pigweed, Amaranthus palmeri); assay: Test A1 preemergence, Pigweed, Palmer
Excerpt: as §1

[8] = test system: ragweed (common ragweed, Ambrosia artemisiifolia); assay: Test A1 preemergence, ragweed
Excerpt: as §1

[9] = test system: Ryegrass, Italian (Italian ryegrass, Lolium multiflorum); assay: Test A1 preemergence, Ryegrass, Italian
Excerpt: as §1

soybean (Glycine max) [10] = assay: Test A1 preemergence, soybean
Excerpt: as §1

[11] = test system: wheat (Triticum aestivum); assay: Test A1 preemergence, wheat
Excerpt: as §1

[12] = test system: blackgrass (Alopecurus myosuroides); assay: Test A1 postemergence, blackgrass; conditions: Postemergence, 0 to 100 scale (0 no effect, 100 complete control)
Excerpt: as §1

corn (Zea mays) [13] = assay: Test A1 postemergence, corn; conditions: Postemergence
Excerpt: as §1

[14] = test system: Foxtail, Giant (giant foxtail, Setaria faberi); assay: Test A1 postemergence, Foxtail, Giant; conditions: Postemergence
Excerpt: as §1

[15] = test system: goosegrass (Eleusine indica); assay: Test A1 postemergence, goosegrass; conditions: Postemergence
Excerpt: as §1

kochia (Bassia scoparia) [16] = assay: Test A1 postemergence, kochia; conditions: Postemergence
Excerpt: as §1

[17] = test system: Oat, Wild (wild oat, Avena fatua); assay: Test A1 postemergence, Oat, Wild; conditions: Postemergence
Excerpt: as §1

[18] = test system: Pigweed, Palmer (palmer amaranth, palmer pigweed, Amaranthus palmeri); assay: Test A1 postemergence, Pigweed, Palmer; conditions: Postemergence
Excerpt: as §1

[19] = test system: ragweed (common ragweed, Ambrosia artemisiifolia); assay: Test A1 postemergence, ragweed; conditions: Postemergence
Excerpt: as §1

[20] = test system: Ryegrass, Italian (Italian ryegrass, Lolium multiflorum); assay: Test A1 postemergence, Ryegrass, Italian; conditions: Postemergence
Excerpt: as §1

soybean (Glycine max) [21] = assay: Test A1 postemergence, soybean; conditions: Postemergence
Excerpt: as §1

[22] = test system: wheat (Triticum aestivum); assay: Test A1 postemergence, wheat; conditions: Postemergence
Excerpt: as §1

[23] = test system: galium (catchweed bedstraw, Galium aparine); assay: Test A1 postemergence, galium; conditions: Postemergence
Excerpt: as §1

[24] = test system: barnyardgrass (Echinochloa crus-galli); assay: Test B1 flooded paddy test, barnyardgrass; conditions: 250 g ai/ha, Flood, applied to paddy water, 2-leaf stage, visually evaluated after 10 to 14 days
Excerpt: (§2) A dash (-) response means no test result.

[25] = test system: ducksalad (Heteranthera limosa); assay: Test B1 flooded paddy test, ducksalad; conditions: 250 g ai/ha, Flood, applied to paddy water, 2-leaf stage, visually evaluated after 10 to 14 days
Excerpt: as §2

rice (Oryza sativa) = assay: Test B1 flooded paddy test, rice; conditions: 250 g ai/ha, Flood, applied to paddy water, 2-leaf stage, visually evaluated after 10 to 14 days
Excerpt: as §2

[26] = 31 g ai/ha, 0 to 100 scale (0 no effect, 100 complete control)
[27] = 125 g ai/ha, 0 to 100 scale, 0 no effect, 100 complete control
[28] = 31 g ai/ha, 0 to 100 scale (0 no effect, 100 complete control), 10 days

**Q.** With CCC1ON=C(c2cc(NS(=O)(=O)C(F)(F)F)c(C)cc2C)C1CC (stereo not shown) [Compound 343] as the compound, how does the “Plant response rating, Blackgrass” value [1, 26] read?
**A.** 60

**Q.** What about the “Plant response rating, Blackgrass” value [1, 27] of the same compound?
**A.** 90

**Q.** What about the “Plant response rating, Corn” value (corn (Zea mays) [2]; [26]) of the same compound?
**A.** 10

**Q.** What about the “Plant response rating, Corn” value (corn (Zea mays) [2]; [27]) of the same compound?
**A.** 60

**Q.** And the “Plant response rating, Foxtail, Giant” value [3, 26]?
**A.** 90

**Q.** And the “Plant response rating, Foxtail, Giant” value [3, 27]?
**A.** 100

**Q.** What about the “Plant response rating, Goosegrass” value [4, 26] of the same compound?
**A.** 90

**Q.** What about the “Plant response rating, Goosegrass” value [4, 27] of the same compound?
**A.** 100

**Q.** And the “Plant response rating, Kochia” value (kochia (Bassia scoparia) [5]; [26])?
**A.** 30

**Q.** What about the “Plant response rating, Kochia” value (kochia (Bassia scoparia) [5]; [27]) of the same compound?
**A.** 70

**Q.** What about the “Plant response rating, Oat, Wild” value [6, 26] of the same compound?
**A.** 0

**Q.** And the “Plant response rating, Oat, Wild” value [6, 27]?
**A.** 70

**Q.** What about the “Plant response rating, Pigweed, Palmer” value [7, 26] of the same compound?
**A.** 40

**Q.** And the “Plant response rating, Pigweed, Palmer” value [7, 27]?
**A.** 90

**Q.** And the “Plant response rating, Ragweed” value [8, 26]?
**A.** 10

**Q.** And the “Plant response rating, Ragweed” value [8, 27]?
**A.** 60

**Q.** What about the “Plant response rating, Ryegrass, Italian” value [9, 26] of the same compound?
**A.** 60

**Q.** And the “Plant response rating, Ryegrass, Italian” value [9, 27]?
**A.** 100

**Q.** What about the “Plant response rating, Soybean” value (soybean (Glycine max) [10]; [26]) of the same compound?
**A.** 50

**Q.** What about the “Plant response rating, Soybean” value (soybean (Glycine max) [10]; [27]) of the same compound?
**A.** 60

**Q.** And the “Plant response rating, Wheat” value [11, 26]?
**A.** 10

**Q.** And the “Plant response rating, Wheat” value [11, 27]?
**A.** 90

**Q.** What about the “Plant response rating, Blackgrass” value ([12]; 31 g ai/ha, 10 days) of the same compound?
**A.** 10

**Q.** What about the “Plant response rating, Blackgrass” value ([12]; 125 g ai/ha) of the same compound?
**A.** 30

**Q.** What about the “Plant response rating, Corn” value (corn (Zea mays) [13]; [28]) of the same compound?
**A.** 10

**Q.** And the “Plant response rating, Corn” value (corn (Zea mays) [13]; 125 g ai/ha, 0 to 100 scale)?
**A.** 40

**Q.** And the “Plant response rating, Foxtail, Giant” value [14, 28]?
**A.** 0

**Q.** And the “Plant response rating, Foxtail, Giant” value ([14]; 125 g ai/ha, 0 to 100 scale)?
**A.** 30

**Q.** And the “Plant response rating, Goosegrass” value [15, 28]?
**A.** 40

**Q.** And the “Plant response rating, Goosegrass” value ([15]; 125 g ai/ha, 0 to 100 scale)?
**A.** 90

**Q.** And the “Plant response rating, Kochia” value (kochia (Bassia scoparia) [16]; [28])?
**A.** 20

**Q.** And the “Plant response rating, Kochia” value (kochia (Bassia scoparia) [16]; 125 g ai/ha, 0 to 100 scale)?
**A.** 60

**Q.** And the “Plant response rating, Oat, Wild” value [17, 28]?
**A.** 0

**Q.** What about the “Plant response rating, Oat, Wild” value ([17]; 125 g ai/ha, 0 to 100 scale) of the same compound?
**A.** 50

**Q.** What about the “Plant response rating, Pigweed, Palmer” value [18, 28] of the same compound?
**A.** 0

**Q.** What about the “Plant response rating, Pigweed, Palmer” value ([18]; 125 g ai/ha, 0 to 100 scale) of the same compound?
**A.** 60

**Q.** What about the “Plant response rating, Ragweed” value [19, 28] of the same compound?
**A.** 20

**Q.** And the “Plant response rating, Ragweed” value ([19]; 125 g ai/ha, 0 to 100 scale)?
**A.** 80

**Q.** And the “Plant response rating, Ryegrass, Italian” value [20, 28]?
**A.** 20

**Q.** And the “Plant response rating, Ryegrass, Italian” value ([20]; 125 g ai/ha, 0 to 100 scale)?
**A.** 80

**Q.** And the “Plant response rating, Soybean” value (soybean (Glycine max) [21]; [28])?
**A.** 40

**Q.** And the “Plant response rating, Soybean” value (soybean (Glycine max) [21]; 125 g ai/ha, 0 to 100 scale)?
**A.** 60

**Q.** And the “Plant response rating, Wheat” value [22, 28]?
**A.** 30

**Q.** And the “Plant response rating, Wheat” value ([22]; 125 g ai/ha, 0 to 100 scale)?
**A.** 60

**Q.** And the “Plant response rating, Galium” value [23, 28]?
**A.** 70

**Q.** And the “Plant response rating, Galium” value ([23]; 125 g ai/ha, 0 to 100 scale)?
**A.** 100

**Q.** What about the “Plant response rating, Barnyardgrass (0 to 100 scale, 0 is no effect, 100 is complete control)” value [24] of the same compound?
**A.** 85

**Q.** What about the “Plant response rating, Ducksalad (0 to 100 scale, 0 is no effect, 100 is complete control)” value [25] of the same compound?
**A.** 45

**Q.** What about the “Plant response rating, Rice (0 to 100 scale, 0 is no effect, 100 is complete control)” value (rice (Oryza sativa)) of the same compound?
**A.** 40
